Experiments:
STK32B(h) = biological target: T1, STK32B(h) (Homo sapiens, UniProt Q9NY57); assay: Eurofins kinase panel; type: biochemical; conditions: read-out: Inhibition rate (%)
T1 construct: purchased Eurofins (KinaseProfiler)

PKR(h) = biological target: T2, PKR(h) (Homo sapiens, UniProt P19525); assay: Eurofins kinase panel; type: biochemical; conditions: read-out: Inhibition rate (%)
T2 construct: purchased Eurofins (KinaseProfiler)

ErbB4(h) = biological target: T3, ErbB4(h) (Homo sapiens, UniProt Q15303); assay: Eurofins kinase panel; type: biochemical; conditions: read-out: Inhibition rate (%)
T3 construct: purchased Eurofins (KinaseProfiler)

Aurora-C(h) = biological target: T4, Aurora-C(h) (Homo sapiens, UniProt Q9UQB9); assay: Eurofins kinase panel; type: biochemical; conditions: read-out: Inhibition rate (%)
T4 construct: purchased Eurofins (KinaseProfiler)
T4 sequence (Q9UQB9 1-309): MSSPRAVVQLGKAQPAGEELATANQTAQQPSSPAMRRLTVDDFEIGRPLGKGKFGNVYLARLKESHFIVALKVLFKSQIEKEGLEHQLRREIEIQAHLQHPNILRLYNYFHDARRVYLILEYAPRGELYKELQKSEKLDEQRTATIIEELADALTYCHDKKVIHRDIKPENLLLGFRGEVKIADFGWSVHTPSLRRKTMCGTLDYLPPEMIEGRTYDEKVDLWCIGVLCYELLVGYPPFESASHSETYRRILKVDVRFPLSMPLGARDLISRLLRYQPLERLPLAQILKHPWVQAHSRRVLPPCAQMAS

CHK2(R145W)(h) = biological target: T5, CHK2(R145W)(h) (Homo sapiens, UniProt O96017, R145W); assay: Eurofins kinase panel; type: biochemical; conditions: read-out: Inhibition rate (%)
T5 construct: purchased Eurofins (KinaseProfiler)

[1] = system: 20 additional tumor cell lines with low expression or activation of FGFR and CSF-1R; assay: Cell proliferation assay, non-dependent panel; type: cell-based; conditions: 20 cell lines
Description: (§1) The cancer cell lines indicated in Figure 3 were seeded in 96-well plates at a low density in growth medium. The next day, appropriate controls or the designated concentrations of the compounds were added to each well, and the cells were incubated for 72 h. HUVECs (passage 3) were seeded in 96-well plates in growth medium overnight and transferred to serum-free medium for 24 h. The following day, appropriate controls or the designated concentrations of the compounds were added to each well, and 100 ng/mL growth factor (bFGF or VEGF) was added to the indicated wells. The cells were incubated for 48 h. Finally, cell proliferation was determined using a sulforhodamine B (SRB) assay or a cell counting kit-8 (CCK-8) assay. […] IC50 values for proliferation curves were calculated using a 4-parameter logistic nonlinear regression model with SoftMax Pro Software (Molecular Devices, San Jose, USA).

DAPK1(h) = biological target: T6, DAPK1(h) (Homo sapiens, UniProt P53355); assay: Eurofins kinase panel; type: biochemical; conditions: read-out: Inhibition rate (%)
T6 construct: purchased Eurofins (KinaseProfiler)

Aurora-A(h) = biological target: T7, Aurora-A(h) (Homo sapiens, UniProt O14965); assay: Eurofins kinase panel; type: biochemical; conditions: read-out: Inhibition rate (%)
T7 construct: purchased Eurofins (KinaseProfiler)
T7 sequence (O14965 1-403): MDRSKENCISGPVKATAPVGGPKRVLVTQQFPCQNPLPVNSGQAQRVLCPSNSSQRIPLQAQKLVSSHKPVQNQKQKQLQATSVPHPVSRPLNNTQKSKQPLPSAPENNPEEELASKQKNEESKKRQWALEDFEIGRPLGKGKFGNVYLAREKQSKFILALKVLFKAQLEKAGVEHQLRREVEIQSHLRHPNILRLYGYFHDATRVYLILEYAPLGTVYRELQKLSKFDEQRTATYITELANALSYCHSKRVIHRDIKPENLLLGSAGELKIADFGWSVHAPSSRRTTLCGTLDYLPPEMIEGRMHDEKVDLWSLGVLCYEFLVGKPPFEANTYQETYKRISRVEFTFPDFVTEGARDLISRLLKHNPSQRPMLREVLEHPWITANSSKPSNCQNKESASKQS

WNK2(h) = biological target: T8, WNK2(h) (Homo sapiens, UniProt Q9Y3S1); assay: Eurofins kinase panel; type: biochemical; conditions: read-out: Inhibition rate (%)
T8 construct: purchased Eurofins (KinaseProfiler)

Snk(h) = biological target: T9, Snk(h) (Homo sapiens, UniProt Q9NYY3); assay: Eurofins kinase panel; type: biochemical; conditions: read-out: Inhibition rate (%)
T9 construct: purchased Eurofins (KinaseProfiler)

Plk3(h) = biological target: T10, Plk3(h) (Homo sapiens, UniProt Q9H4B4); assay: Eurofins kinase panel; type: biochemical; conditions: read-out: Inhibition rate (%)
T10 construct: purchased Eurofins (KinaseProfiler)

Abl(h) = biological target: T11, Abl(h) (Homo sapiens, UniProt P00519); assay: Eurofins kinase panel; type: biochemical; conditions: read-out: Inhibition rate (%)
T11 construct: purchased Eurofins (KinaseProfiler)

UMUC14 = assay: Cell proliferation assay; type: cell-based, human; conditions: Homo sapiens, UMUC14; 72 h, mean ± SD
Description: as §1

RT112 = assay: Cell proliferation assay; type: cell-based, human; conditions: Homo sapiens, RT-112; 72 h, mean ± SD
Description: as §1

HUH7 = assay: Cell proliferation assay; type: cell-based, human; conditions: Homo sapiens, Huh-7; 72 h, mean ± SD
Description: as §1

SNU16 = assay: Cell proliferation assay; type: cell-based, human; conditions: Homo sapiens, SNU-16; 72 h, mean ± SD
Description: as §1

SUM52PE = assay: Cell proliferation assay; type: cell-based, human; conditions: Homo sapiens, SUM52PE; 72 h, mean ± SD
Description: as §1

OPM2 = assay: Cell proliferation assay; type: cell-based, human; conditions: Homo sapiens, OPM-2; 72 h, mean ± SD
Description: as §1

NCI-H716 = assay: Cell proliferation assay; type: cell-based, human; conditions: Homo sapiens, NCI-H716; 72 h, mean ± SD
Description: as §1

KG-1 = assay: Cell proliferation assay; type: cell-based, human; conditions: Homo sapiens, KG-1; 72 h, mean ± SD
Description: as §1

KATOIII = assay: Cell proliferation assay; type: cell-based, human; conditions: Homo sapiens, KATO III; 72 h, mean ± SD
Description: as §1

NCI-H1581 = assay: Cell proliferation assay; type: cell-based, human; conditions: Homo sapiens, NCI-H1581; 72 h, mean ± SD
Description: as §1

T5 sequence (O96017 whole entry R145W): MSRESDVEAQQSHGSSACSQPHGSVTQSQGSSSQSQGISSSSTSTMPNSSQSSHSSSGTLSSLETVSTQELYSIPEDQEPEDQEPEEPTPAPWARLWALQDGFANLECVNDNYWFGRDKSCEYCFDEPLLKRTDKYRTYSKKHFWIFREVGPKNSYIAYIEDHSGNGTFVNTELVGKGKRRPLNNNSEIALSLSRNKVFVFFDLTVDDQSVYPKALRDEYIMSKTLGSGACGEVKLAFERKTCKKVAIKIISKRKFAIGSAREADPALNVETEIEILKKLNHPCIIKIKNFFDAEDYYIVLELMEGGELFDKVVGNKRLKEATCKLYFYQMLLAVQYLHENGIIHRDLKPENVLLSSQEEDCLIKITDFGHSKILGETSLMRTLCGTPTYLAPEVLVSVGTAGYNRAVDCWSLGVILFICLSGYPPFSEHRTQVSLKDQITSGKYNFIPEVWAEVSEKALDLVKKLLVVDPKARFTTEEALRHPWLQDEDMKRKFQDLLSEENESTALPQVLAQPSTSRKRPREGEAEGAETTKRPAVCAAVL
T6 sequence (P53355 whole entry): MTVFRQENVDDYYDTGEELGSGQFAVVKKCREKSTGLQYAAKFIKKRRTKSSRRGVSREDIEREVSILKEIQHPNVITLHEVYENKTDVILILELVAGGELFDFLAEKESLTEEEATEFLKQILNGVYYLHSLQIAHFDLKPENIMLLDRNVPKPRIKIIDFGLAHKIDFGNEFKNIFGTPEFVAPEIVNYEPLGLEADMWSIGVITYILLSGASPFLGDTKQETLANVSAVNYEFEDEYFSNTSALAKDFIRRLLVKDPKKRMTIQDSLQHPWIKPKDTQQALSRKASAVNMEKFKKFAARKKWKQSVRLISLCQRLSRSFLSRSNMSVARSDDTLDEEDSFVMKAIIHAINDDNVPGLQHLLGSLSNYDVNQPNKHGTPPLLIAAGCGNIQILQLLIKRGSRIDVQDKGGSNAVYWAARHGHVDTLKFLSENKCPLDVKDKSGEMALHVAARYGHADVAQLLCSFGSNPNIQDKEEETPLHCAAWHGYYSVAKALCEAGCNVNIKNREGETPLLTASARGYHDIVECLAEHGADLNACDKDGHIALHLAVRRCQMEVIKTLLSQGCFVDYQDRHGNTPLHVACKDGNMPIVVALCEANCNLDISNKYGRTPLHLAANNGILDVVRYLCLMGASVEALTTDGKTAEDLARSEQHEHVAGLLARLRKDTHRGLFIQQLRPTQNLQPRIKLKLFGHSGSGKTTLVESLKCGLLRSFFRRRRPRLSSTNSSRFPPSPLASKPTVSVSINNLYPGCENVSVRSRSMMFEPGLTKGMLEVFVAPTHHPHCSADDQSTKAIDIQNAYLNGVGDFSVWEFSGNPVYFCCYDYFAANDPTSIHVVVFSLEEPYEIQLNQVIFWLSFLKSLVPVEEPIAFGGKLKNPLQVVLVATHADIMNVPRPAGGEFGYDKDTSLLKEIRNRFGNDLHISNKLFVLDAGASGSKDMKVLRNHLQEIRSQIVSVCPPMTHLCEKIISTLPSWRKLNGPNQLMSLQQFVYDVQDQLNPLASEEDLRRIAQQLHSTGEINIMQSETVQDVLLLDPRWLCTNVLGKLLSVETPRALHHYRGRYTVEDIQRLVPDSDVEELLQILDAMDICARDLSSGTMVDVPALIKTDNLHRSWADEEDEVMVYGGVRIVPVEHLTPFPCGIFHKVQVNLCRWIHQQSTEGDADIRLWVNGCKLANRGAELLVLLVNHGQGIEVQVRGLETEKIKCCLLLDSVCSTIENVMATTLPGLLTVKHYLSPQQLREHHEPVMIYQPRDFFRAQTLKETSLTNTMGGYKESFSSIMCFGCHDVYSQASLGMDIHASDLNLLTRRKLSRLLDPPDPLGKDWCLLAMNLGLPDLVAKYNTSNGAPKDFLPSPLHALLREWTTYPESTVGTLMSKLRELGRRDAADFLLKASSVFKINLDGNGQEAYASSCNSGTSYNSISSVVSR
T8 sequence (Q9Y3S1 whole entry): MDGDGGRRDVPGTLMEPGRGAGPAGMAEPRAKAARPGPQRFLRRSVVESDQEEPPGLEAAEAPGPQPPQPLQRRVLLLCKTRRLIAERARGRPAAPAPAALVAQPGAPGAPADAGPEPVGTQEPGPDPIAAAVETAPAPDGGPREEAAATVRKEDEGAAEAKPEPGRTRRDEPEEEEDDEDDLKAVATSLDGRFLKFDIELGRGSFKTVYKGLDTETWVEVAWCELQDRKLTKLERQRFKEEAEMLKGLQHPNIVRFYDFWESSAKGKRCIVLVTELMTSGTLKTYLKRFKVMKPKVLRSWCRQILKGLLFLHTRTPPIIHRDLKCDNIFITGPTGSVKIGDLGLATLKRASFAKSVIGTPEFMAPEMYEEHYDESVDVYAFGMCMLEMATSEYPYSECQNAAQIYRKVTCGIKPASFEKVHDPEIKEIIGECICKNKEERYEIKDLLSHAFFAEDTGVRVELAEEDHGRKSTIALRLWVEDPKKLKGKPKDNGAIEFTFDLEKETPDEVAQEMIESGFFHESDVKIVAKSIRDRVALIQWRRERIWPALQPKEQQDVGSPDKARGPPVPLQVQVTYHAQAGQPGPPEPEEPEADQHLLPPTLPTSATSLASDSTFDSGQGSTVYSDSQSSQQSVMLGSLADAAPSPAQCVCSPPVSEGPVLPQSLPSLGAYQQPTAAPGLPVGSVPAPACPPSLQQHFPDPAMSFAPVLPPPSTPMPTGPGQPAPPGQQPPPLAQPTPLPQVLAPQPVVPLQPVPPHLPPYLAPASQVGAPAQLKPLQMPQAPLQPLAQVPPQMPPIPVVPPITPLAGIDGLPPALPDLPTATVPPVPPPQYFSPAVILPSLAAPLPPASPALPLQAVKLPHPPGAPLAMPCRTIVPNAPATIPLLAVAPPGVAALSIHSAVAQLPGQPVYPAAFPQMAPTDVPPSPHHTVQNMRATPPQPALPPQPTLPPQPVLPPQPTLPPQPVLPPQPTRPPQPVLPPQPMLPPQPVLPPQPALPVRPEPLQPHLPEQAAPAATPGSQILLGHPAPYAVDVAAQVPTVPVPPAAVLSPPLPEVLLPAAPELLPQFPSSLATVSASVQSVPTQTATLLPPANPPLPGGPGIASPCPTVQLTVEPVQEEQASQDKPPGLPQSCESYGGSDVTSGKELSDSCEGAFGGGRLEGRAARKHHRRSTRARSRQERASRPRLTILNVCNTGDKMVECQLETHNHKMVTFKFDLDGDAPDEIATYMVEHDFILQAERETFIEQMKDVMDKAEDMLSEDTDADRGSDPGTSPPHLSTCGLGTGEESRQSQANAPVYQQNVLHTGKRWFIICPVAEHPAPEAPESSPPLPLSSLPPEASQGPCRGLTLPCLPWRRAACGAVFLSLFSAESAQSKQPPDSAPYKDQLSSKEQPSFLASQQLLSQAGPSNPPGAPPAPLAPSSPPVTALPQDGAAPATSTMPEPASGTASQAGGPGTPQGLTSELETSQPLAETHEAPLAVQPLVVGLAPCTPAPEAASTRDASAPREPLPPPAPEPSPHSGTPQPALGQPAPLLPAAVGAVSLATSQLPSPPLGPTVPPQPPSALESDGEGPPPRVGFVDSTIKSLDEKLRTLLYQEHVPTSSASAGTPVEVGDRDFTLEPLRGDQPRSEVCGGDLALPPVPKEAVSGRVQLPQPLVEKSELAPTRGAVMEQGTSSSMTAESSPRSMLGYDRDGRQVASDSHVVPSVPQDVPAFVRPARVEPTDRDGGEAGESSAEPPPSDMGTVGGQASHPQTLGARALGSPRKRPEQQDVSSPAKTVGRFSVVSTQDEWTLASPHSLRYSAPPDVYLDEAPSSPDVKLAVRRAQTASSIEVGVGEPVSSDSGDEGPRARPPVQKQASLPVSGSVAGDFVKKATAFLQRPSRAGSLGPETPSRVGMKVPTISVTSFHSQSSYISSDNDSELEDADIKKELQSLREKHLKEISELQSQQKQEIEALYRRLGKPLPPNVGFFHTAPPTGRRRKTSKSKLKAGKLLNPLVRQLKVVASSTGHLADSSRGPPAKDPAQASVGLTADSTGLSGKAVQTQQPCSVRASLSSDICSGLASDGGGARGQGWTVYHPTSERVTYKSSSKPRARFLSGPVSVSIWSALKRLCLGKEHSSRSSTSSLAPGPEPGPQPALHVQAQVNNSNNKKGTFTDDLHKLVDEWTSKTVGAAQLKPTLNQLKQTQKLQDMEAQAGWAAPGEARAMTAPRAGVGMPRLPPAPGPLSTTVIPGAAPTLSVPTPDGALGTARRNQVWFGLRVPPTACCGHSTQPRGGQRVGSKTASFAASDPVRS
T1 sequence (Q9NY57 whole entry): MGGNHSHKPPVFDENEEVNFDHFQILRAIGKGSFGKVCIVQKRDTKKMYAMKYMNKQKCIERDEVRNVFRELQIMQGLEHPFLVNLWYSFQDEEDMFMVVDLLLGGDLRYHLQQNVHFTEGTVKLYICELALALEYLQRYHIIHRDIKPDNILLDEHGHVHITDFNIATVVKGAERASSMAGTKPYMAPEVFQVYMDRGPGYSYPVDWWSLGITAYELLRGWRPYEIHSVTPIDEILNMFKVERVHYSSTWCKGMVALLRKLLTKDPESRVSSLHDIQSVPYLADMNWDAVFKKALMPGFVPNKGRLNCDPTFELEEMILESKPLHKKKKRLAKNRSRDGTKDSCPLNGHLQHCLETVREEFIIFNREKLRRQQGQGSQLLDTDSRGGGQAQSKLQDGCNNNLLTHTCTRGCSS

## COc1cc(OC)c(Cl)c(-c2ccc3c(NC(=O)c4ccc(N5CCNC(C)(C)C5)cc4)n[nH]c3n2)c1Cl [3D185]
STK32B(h); 10 nM
  inhibition at 0.01 µM: 1%
STK32B(h); 100 nM
  inhibition at 0.1 µM: 1%
STK32B(h); 1000 nM
  inhibition at 1 µM: 0%
PKR(h); 10 nM
  inhibition at 0.01 µM: -4%
PKR(h); 100 nM
  inhibition at 0.1 µM: -3%
PKR(h); 1000 nM
  inhibition at 1 µM: 0%
ErbB4(h); 10 nM
  inhibition at 0.01 µM: -2%
ErbB4(h); 100 nM
  inhibition at 0.1 µM: -1%
ErbB4(h); 1000 nM
  inhibition at 1 µM: 28%
Aurora-C(h); 10 nM
  inhibition at 0.01 µM: -15%
Aurora-C(h); 100 nM
  inhibition at 0.1 µM: 6%
Aurora-C(h); 1000 nM
  inhibition at 1 µM: -2%
CHK2(R145W)(h); 10 nM
  inhibition at 0.01 µM: -17%
CHK2(R145W)(h); 100 nM
  inhibition at 0.1 µM: -15%
CHK2(R145W)(h); 1000 nM
  inhibition at 1 µM: -4%
[1]
  IC50: > 1000 nM
DAPK1(h); 10 nM
  inhibition at 0.01 µM: 5%
DAPK1(h); 100 nM
  inhibition at 0.1 µM: 13%
DAPK1(h); 1000 nM
  inhibition at 1 µM: 19%
Aurora-A(h); 10 nM
  inhibition at 0.01 µM: 4%
Aurora-A(h); 100 nM
  inhibition at 0.1 µM: 5%
Aurora-A(h); 1000 nM
  inhibition at 1 µM: 3%
WNK2(h); 10 nM
  inhibition at 0.01 µM: 0%
WNK2(h); 100 nM
  inhibition at 0.1 µM: -1%
WNK2(h); 1000 nM
  inhibition at 1 µM: 22%
Snk(h); 10 nM
  inhibition at 0.01 µM: 0%
Snk(h); 100 nM
  inhibition at 0.1 µM: -2%
Snk(h); 1000 nM
  inhibition at 1 µM: 10%
Plk3(h); 10 nM
  inhibition at 0.01 µM: 5%
Plk3(h); 100 nM
  inhibition at 0.1 µM: 1%
Plk3(h); 1000 nM
  inhibition at 1 µM: 6%
Abl(h); 10 nM
  inhibition at 0.01 µM: 3%
Abl(h); 100 nM
  inhibition at 0.1 µM: 43%
Abl(h); 1000 nM
  inhibition at 1 µM: 81%
UMUC14
  IC50: 30.9 ± 5.3 nM
RT112
  IC50: 36.8 ± 6.8 nM
HUH7
  IC50: 49.8 ± 1.5 nM
SNU16
  IC50: 0.9 ± 0.1 nM
SUM52PE
  IC50: 2 nM
OPM2
  IC50: 19.2 ± 4.3 nM
NCI-H716
  IC50: 3 ± 0.4 nM
KG-1
  IC50: 2 ± 0.4 nM
KATOIII
  IC50: 11.3 ± 0.2 nM
NCI-H1581
  IC50: 17.3 ± 5.7 nM
